Results as given in patent publication US20240381872A1, “SUBSTITUTED 2,3-DIHYDRO[1,3]THIAZOLO[4,5-B]PYRIDINES, SALTS THEREOF AND THEIR USE AS HERBICIDALLY ACTIVE SUBSTANCES” (BAYER AKTIENGESELLSCHAFT, priority 2021, published 2024).

Experiments:
Assay type in all cases: in vivo
Lolium rigidum (LOLRI) = assay: Herbicidal post-emergence action, section E (Table E6); conditions: application rate 320 g/ha, visual assessment ca. 3 weeks after spraying; for pest or weed control at 320 g/ha: Lolium rigidum, 504 h, read-out: post-emergence activity against LOLRI in %
Description: (§1) Seeds of mono- and dicotyledonous weed plants and crop plants were sown, in plastic or organic planting pots, in sandy loam, covered with soil and grown in a greenhouse under controlled growth conditions. 2 to 3 weeks after sowing, the test plants were sprayed in the single-leaf stage. The compounds according to the invention, formulated in form of wettable powders (WP) or as emulsifiable concentrates (EC), were sprayed onto the green plant parts as aqueous suspension or emulsion, with the addition of 0.5% of an additive, at an application rate of 600 l of water/ha (converted). The test plants were placed in the greenhouse for ca. 3 weeks under optimum growth conditions, and then the effect of the preparations was assessed visually in comparison with untreated controls (herbicidal effect in percent (%): 100% effect=plants have died off, 0% effect=as control plants).

Setaria viridis (SETVI) = assay: Herbicidal post-emergence action, section E (Table E8); conditions: visual assessment ca. 3 weeks after spraying; for pest or weed control at 320 g/ha / post-emergence activity against SETVI in %: application rate 320 g/ha
Description: as §1

Veronica persica (VERPE) = assay: Herbicidal post-emergence action, section E (Table E9); conditions: visual assessment ca. 3 weeks after spraying
Procedure, shortened: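 Post-emergence greenhouse spray onto single-leaf-stage plants raised in sandy loam, using WP or EC formulations with 0.5% additive at 600 l water/ha. Effect is the visual percentage damage relative to untreated controls after about 3 weeks.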

Oryza sativa (ORYZA) = assay: Post-emergence effects on crop plants, section F (Table F3)
Procedure, shortened: (§2)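 Sandy loam, greenhouse, controlled conditions. Spray at single-leaf stage (2–3 wk post-sowing); WP/EC aqueous suspension/emulsion + 0.5% additive, 600 l water/ha; rate ≤320 g/ha. Visual scoring ca. 3 wk post-spray vs untreated, % effect.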

Brassica napus (BRSNW) = assay: Post-emergence effects on crop plants, section F (Table F5); conditions: application rate 80 g/ha
Procedure, shortened: as §2

Kochia scoparia (KCHSC) [1] = assay: Herbicidal pre-emergence action, section A (Table A4); conditions: visual grading after ca. 3 weeks vs untreated controls; for pest or weed control at 1280 g/ha: Bassia scoparia, pre-emergence, 504 h, application rate 1280 g/ha, read-out: pre-emergence activity against KCHSC in %; for pre-emergence activity against KCHSC in %: application rate 320 g/ha
Procedure, shortened: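 Percent herbicidal effect, visually graded about 3 weeks post-treatment against untreated pots, reflects pre-emergence application of WP or EC formulations to the soil surface over seeds sown in sandy loam, using 0.5% additive and 600 l of water per hectare.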

[2] = test system: Alopecurus myosuroides (ALOMY); assay: Herbicidal post-emergence action, section B (Table B2); conditions: application rate 1280 g/ha, rated visually about 3 weeks after treatment vs untreated controls, 100% = plants have died, 0% = like control plants
Description: (§3) Seeds of mono- and dicotyledonous weed plants were placed in plastic pots in sandy loam soil (doubly sown with in each case one species of mono- or dicotyledonous weed plants per pot), covered with soil and cultivated in a greenhouse under controlled growth conditions. 2 to 3 weeks after sowing, the test plants were treated at the one-leaf stage. The compounds of the invention, formulated in the form of wettable powders (WP) or as emulsion concentrates (EC), were applied onto the green parts of the plants as aqueous suspension or emulsion with addition of 0.5% additive at a water application rate of 600 liters per hectare (converted). After the test plants had been kept in the greenhouse under optimum growth conditions for about 3 weeks, the activity of the preparations was rated visually in comparison to untreated controls. For example, 100% activity=the plants have died, 0% activity=like control plants.

[3] = test system: Matricaria inodora (MATIN); assay: Herbicidal post-emergence action, section B (Table B6); conditions: visual rating about 3 weeks after treatment vs untreated controls
Description: as §3

Viola tricolor (VIOTR) = assay: Herbicidal pre-emergence action, section C (Table C9); conditions: visual grading after ca. 3 weeks
Description: (§4) Seeds of mono- and dicotyledonous weed plants and crop plants were sown, in plastic or organic planting pots, in sandy loam and covered with soil. The compounds according to the invention, formulated in the form of wettable powders (WP) or as emulsifiable concentrates (EC), were applied to the surface of the covering soil as aqueous suspension or emulsion, with the addition of 0.5% of an additive, at an application rate of 600 l of water/ha (converted). Following treatment, the pots were placed in a greenhouse and kept under optimum growth conditions for the test plants. The visual grading of the damage to the test plants was carried out after ca. 3 weeks in comparison to untreated controls (herbicidal effect in percent (%): 100% effect=plants have died off, 0% effect=as control plants).

Kochia scoparia (KCHSC) [4] = assay: Herbicidal pre-emergence action, section C (Table C13); conditions: application rate 320 g/ha, visual grading after ca. 3 weeks
Description: as §4

Kochia scoparia (KCHSC) [5] = assay: Herbicidal post-emergence action, section E (Table E11); conditions: visual assessment ca. 3 weeks after spraying
Description: as §1

[6] = Veronica persica, 504 h, application rate 80 g/ha, read-out: post-emergence activity against VERPE in %
[7] = Setaria viridis, 504 h, read-out: post-emergence activity against SETVI in %

Fc1ccccc1-c1nc2c(cc1Br)SCN2 [Example I-001, 6-bromo-5-(2-fluorophenyl)-2,3-dihydro[1,3]thiazolo[4,5-b]pyridine]
pest or weed control at 320 g/ha (Lolium rigidum (LOLRI)): 90% | pest or weed control at 80 g/ha (Setaria viridis (SETVI); Setaria viridis, 504 h, application rate 80 g/ha, read-out: post-emergence activity against SETVI in %): 90% | pest or weed control at 80 g/ha (Veronica persica (VERPE); [6]): 80% | percent crop plant damage at 320 g/ha (Oryza sativa (ORYZA); Oryza sativa, 504 h, application rate 320 g/ha, read-out: post-emergence activity against ORYZA in %): 20% | crop plant damage (phytotoxicity) in % at 80 g/ha (Brassica napus (BRSNW); Brassica napus, 504 h, read-out: post-emergence activity against BRSNW in %): 20%

CCS(=O)(=O)N1CSc2cc(C)c(-c3ccccc3F)nc21 [Example I-060, 3-(ethylsulfonyl)-5-(2-fluorophenyl)-6-methyl-2,3-dihydro[1,3]thiazolo[4,5-b]pyridine]
pest or weed control at 1280 g/ha (Kochia scoparia (KCHSC) [1]): 100% | pest or weed control at 1280 g/ha ([2]; Alopecurus myosuroides, post-emergence, 504 h, read-out: post-emergence activity against ALOMY): 90% | pest or weed control at 1280 g/ha ([3]; Tripleurospermum inodorum, post-emergence, 504 h, application rate 1280 g/ha, read-out: post-emergence activity against MATIN in %): 90% | pest or weed control at 80 g/ha (Viola tricolor (VIOTR); Viola tricolor, pre-emergence, 504 h, application rate 80 g/ha, read-out: pre-emergence activity against VIOTR in %): 90% | pest or weed control at 320 g/ha (Setaria viridis (SETVI); [7]): 90% | pest or weed control at 80 g/ha (Veronica persica (VERPE); [6]): 80% | percent crop plant damage at 80 g/ha (Oryza sativa (ORYZA); Oryza sativa, 504 h, application rate 80 g/ha, read-out: post-emergence activity against ORYZA in %): 0%

Cc1cc2c(nc1-c1ccccc1F)N(C(=O)C1(C)CC(Cl)=NO1)CS2 (centres unmarked) [Example I-083]
pre-emergence activity against KCHSC in % (Kochia scoparia (KCHSC) [1]): 90% | post-emergence activity against ALOMY [2]: 90% | post-emergence activity against MATIN in % ([3]; application rate 320 g/ha): 90% | pre-emergence activity against VIOTR in % (Viola tricolor (VIOTR); application rate 80 g/ha): 90% | post-emergence activity against SETVI in % (Setaria viridis (SETVI)): 80% | post-emergence activity against VERPE in % (Veronica persica (VERPE); application rate 80 g/ha): 90% | post-emergence activity against ORYZA in % (Oryza sativa (ORYZA); crop plant damage, application rate 320 g/ha): 10%

Cc1cc2c(nc1-c1ccccc1F)N(C(=O)C13CCCC1C(Cl)=NO3)CS2 (centres unmarked) [Example I-104]
pre-emergence activity against KCHSC in % (Kochia scoparia (KCHSC) [1]): 90% | post-emergence activity against ALOMY [2]: 90% | post-emergence activity against MATIN in % ([3]; application rate 1280 g/ha): 90% | pre-emergence activity against VIOTR in % (Viola tricolor (VIOTR); application rate 320 g/ha): 80% | pre-emergence activity against KCHSC in % (Kochia scoparia (KCHSC) [4]): 90% | post-emergence activity against SETVI in % (Setaria viridis (SETVI)): 90% | post-emergence activity against VERPE in % (Veronica persica (VERPE); application rate 80 g/ha): 80% | post-emergence activity against KCHSC in % (Kochia scoparia (KCHSC) [5]; application rate 320 g/ha): 90%

Cc1cc2c(nc1-c1ccccc1F)N(S(=O)(=O)Cc1ccc(F)cc1)CS2 [Example I-122]
pre-emergence activity against KCHSC in % (Kochia scoparia (KCHSC) [1]): 90% | post-emergence activity against ALOMY [2]: 90% | post-emergence activity against MATIN in % ([3]; application rate 1280 g/ha): 90% | pre-emergence activity against VIOTR in % (Viola tricolor (VIOTR); application rate 320 g/ha): 80% | pre-emergence activity against KCHSC in % (Kochia scoparia (KCHSC) [4]): 90% | post-emergence activity against SETVI in % (Setaria viridis (SETVI)): 80% | post-emergence activity against VERPE in % (Veronica persica (VERPE); application rate 320 g/ha): 90% | post-emergence activity against KCHSC in % (Kochia scoparia (KCHSC) [5]; application rate 80 g/ha): 80% | post-emergence activity against BRSNW in % (Brassica napus (BRSNW); crop plant damage): 0%

CCOCCS(=O)(=O)N1C[S+]([O-])c2cc(C)c(-c3ccccc3F)nc21 (centres unmarked) [Example I-127]
pest or weed control at 1280 g/ha (Kochia scoparia (KCHSC) [1]): 100% | pest or weed control at 320 g/ha ([3]; Tripleurospermum inodorum, post-emergence, 504 h, application rate 320 g/ha, read-out: post-emergence activity against MATIN in %): 90% | pest or weed control at 320 g/ha (Kochia scoparia (KCHSC) [4]; Bassia scoparia, pre-emergence, 504 h, read-out: pre-emergence activity against KCHSC in %): 90% | pest or weed control at 320 g/ha (Lolium rigidum (LOLRI)): 80% | pest or weed control at 320 g/ha (Setaria viridis (SETVI); [7]): 80% | pest or weed control at 320 g/ha (Veronica persica (VERPE); Veronica persica, 504 h, application rate 320 g/ha, read-out: post-emergence activity against VERPE in %): 90% | pest or weed control at 80 g/ha (Kochia scoparia (KCHSC) [5]; Bassia scoparia, 504 h, application rate 80 g/ha, read-out: post-emergence activity against KCHSC in %): 90%

COCC1(C(=O)N2CSc3cc(C)c(-c4ccccc4F)nc32)CC(Cl)=NO1 (centres unmarked) [Example I-128]
pre-emergence activity against KCHSC in % (Kochia scoparia (KCHSC) [1]): 90% | post-emergence activity against MATIN in % ([3]; application rate 1280 g/ha): 90% | pre-emergence activity against KCHSC in % (Kochia scoparia (KCHSC) [4]): 90% | post-emergence activity against LOLRI in % (Lolium rigidum (LOLRI)): 80% | post-emergence activity against SETVI in % (Setaria viridis (SETVI)): 80% | post-emergence activity against VERPE in % (Veronica persica (VERPE); application rate 80 g/ha): 80% | post-emergence activity against KCHSC in % (Kochia scoparia (KCHSC) [5]; application rate 80 g/ha): 90%
